Data on 2 molecules can be found in patent publication US6642227B2, “Inhibitors of c-Jun N-terminal kinases (JNK) and other protein kinases” (Vertex Pharmaceuticals Incorporated, priority 2001, dated 2003).

What all share (assay type): biochemical
The target of one assay is human Lck kinase (UniProt P06239). Kind of assay: Lck inhibition assay (A: radioactivity-based or B: spectrophotometric coupled-enzyme assay). The note with it: read-out: Lck Activity (Ki rating). As to the method:
The compounds were evaluated as inhibitors of human Lck kinase using either a radioactivity-based assay or spectrophotometric assay.
The compounds were assayed as inhibitors of full length bovine thymus Lck kinase (from Upstate Biotechnology, cat. no. 14-106) expressed and purified from baculo viral cells. Lck kinase activity was monitored by following the incorporation of ^33p from ATP into the tyrosine of a random poly Glu-Tyr polymer substrate of composition, Glu:Tyr=4:1 (Sigma, cat. no. P-0275). The following were the final concentrations of the assay components: 0.025 M HEPES, pH 7.6, 10 mM MgCl2, 2 mM DTT, 0.25 mg/ml BSA, 10 μM ATP (1-2 μCi ^33P-ATP per reaction), 5 mg/ml poly Glu-Tyr, and 1-2 units of recombinant human […] kinase. In a typical assay, all the reaction components with the exception of ATP were pre-mixed and aliquoted into assay plate wells. Inhibitors dissolved in DMSO were added to the wells to give a final DMSO concentration of 2.5%. The assay plate was incubated at 30 C. for 10 min before initiating the reaction with ^33P-ATP. After 20 min of reaction, the reactions were quenched with 150 μl of 10% trichloroacetic acid (TCA) containing 20 mM Na3PO4. The quenched samples were then transferred to a 96-well filter plate (Whatman, UNI-Filter GF/F Glass Fiber Filter, cat no. 7700-3310) installed on a filter plate vacuum manifold. Filter plates were washed four times with 10% TCA containing 20 mM Na3PO4 and then 4 times with methanol. 200 μl of scintillation fluid was then added to each well. The plates were sealed and the amount of radioactivity associated with the filters was quantified on a TopCount scintillation counter. The radioactivity incorporated was plotted as a function of the inhibitor concentration. The data was fitted to a competitive inhibition kinetics model to get the Ki for the compound.
The ADP produced from ATP by the human recombinant Lck kinase-catalyzed phosphorylation of poly Glu-Tyr substrate was quanitified using a coupled enzyme assay (Fox et al (1998) Protein Sci 7, 2249). In this assay one molecule of NADH is oxidised to NAD for every molecule of ADP produced in the kinase reaction. The disappearance of NADH can be conveniently followed at 340 nm.
The following were the final concentrations of the assay components: 0.025 M HEPES, pH 7.6, 10 mM MgCl2, 2 mM DTT, 5 mg/ml poly Glu-Tyr, and 50 nM of recombinant human Lck kinase. Final concentrations of the components of the coupled enzyme system were 2.5 mM phosphoenolpyruvate, 200 μM NADH, 30 μg/ml pyruvate kinase and 10 μg/ml lactate dehydrogenase.
In a typical assay, all the reaction components with the exception of ATP were pre-mixed and aliquoted into assay plate wells. Inhibitors dissolved in DMSO were added to the wells to give a final DMSO concentration of 2.5%. The assay plate was incubated at 30° C. for 10 min before initiating the reaction with 150 μM ATP. The absorbance change at 340 nm with time, the rate of the reaction, was monitored on a molecular devices plate reader. The data of rate as a function of the inhibitor concentration was fitted to competitive inhibition kinetics model to get the Ki for the compound.

The next assay concerns the target T1, activated JNK3 (Homo sapiens, UniProt P53779).
T1 construct: One such construct encodes amino acid residues Ser40-Glu402 of JNK3α1 and is preceded by Met and Gly residues; Met-Gly dipeptide (initiator Met plus Gly added for the NcoI site) (N); made in house; host or cells: E. coli BL21 (DE3)
Kind of assay: JNK inhibition assay (spectrophotometric coupled-enzyme assay). The text has this: A BLAST search of the EST database using the published JNK3α1 cDNA as a query identified an EST clone (#632588) that contained the entire coding sequence for human JNK3α1. Polymerase chain reactions (PCR) using pfu polymerase (Strategene) were used to introduce restriction sites into the cDNA for cloning into the pET-15B expression vector at the NcoI and BamHI sites. The protein was expressed in E. coli. Due to the poor solubility of the expressed full-length protein (Met 1-Gln 422), an N-terminally truncated protein starting at Ser residue at position 40 (Ser 40) was produced. This truncation corresponds to Ser 2 of JNK1 and JNK2 proteins, and is preceded by a methionine (initiation) and a glycine residue. The glycine residue was added in order to introduce an NcoI site for cloning into the expression vector. In addition, systematic C-terminal truncations were performed by PCR to identify a construct that give rise to diffraction-quality crystals. One such construct encodes amino acid residues Ser40-Glu402 of JNK3α1 and is preceded by Met and Gly residues.
The construct was prepared by PCR using deoxyoligonucleotides: 5′ […] 3′ (forward primer with initiation codon underlined)(SEQ ID NO:1) and 5′ […] 3′ (reverse primer with stop codon underlined)(SEQ ID NO:2) as primers and was confirmed by DNA sequencing.
E.coli strain BL21 (DE3) (Novagen) was transformed with the JNK3 expression construct and grown at 30° C. in LB supplemented with 100 μg/ml carbenicillin in shaker flasks until the cells were in log phase (OD600˜0.8). Isopropylthio-β-D-[…] (IPTG) was added to a final concentration of 0.8 mM and the cells were harvested 2 hours later by centrifugation.
E. coli cell paste containing JNK3 was resuspended in 10 volumes/g lysis buffer (50 mM HEPES, pH 7.2, containing 10% glycerol (v/v), 100 mM NaCl, 2 mM DTT, 0.1 mM PMSF, 2 μg/ml Pepstatin, lug/ml each of E-64 and Leupeptin). Cells were lysed on ice using a microfluidizer and centrifuged at 100,000×g for 30 min at 4° C. The 100,000×g supernatant was diluted 1:5 with Buffer A (20 mM HEPES, pH 7.0, 10% glycerol (v/v), 2 mM DTT) and purified by SP-Sepharose (Pharmacia) cation-exchange chromatography (column dimensions: 2.6×20 cm) at 4° C. The resin was washed with 5 column volumes of Buffer A, followed by 5 column volumes of Buffer A containing 50 mM NaCl. Bound JNK3 was eluted with a 7.5 column volume linear gradient of 50-300 mM NaCl. JNK3 eluted between 150-200 mM NaCl.
Five mg of JNK3 was diluted to 0.5 mg/ml in 50 mM HEPES buffer, pH 7.5, containing 100 mM NaCl, 5 mM DTT, 20 mM MgCl2 and 1 mM ATP. GST-MKK7(DD) was added at a molar ratio of 1:2.5 GST-MKK7:JNK3. After incubation for 30 minutes at 25° C., the reaction mixture was concentrated 5-fold by ultrafiltration in a Centriprep-30 (Amicon, Beverly, Mass.), diluted to 10 ml and an additional 1 mM ATP added. This procedure was repeated three times to remove ADP and replenish ATP. The final addition of ATP was 5 mM and the mixture incubated overnight at 4° C.
The activated JNK3/GST-MKK7(DD) reaction mixture was exchanged into 50 mM HEPES buffer, pH 7.5, containing 5 mM DTT and 5% glycerol (w/v) by dialysis or ultrafiltration. The reaction mixture was adjusted to 1.1 M potassium phosphate, pH 7.5, and purified by hydrophobic interaction chromatography (at 25° C.) using a Rainin Hydropore column. […] Activated JNK3 (i.e. doubly phosphorylated JNK3) was stored at −70° C. at 0.25-1 mg/ml.
Compounds were assayed for the inhibition of JNK3 by a spectrophotometric coupled-enzyme assay. In this assay, a fixed concentration of activated JNK3 (10 nM) was incubated with various concentrations of a potential inhibitor dissolved in DMSO for 10 minutes at 30° C. in a buffer containing 0.1 M HEPES buffer, pH 7.5, containing 10 mM MgCl2, 2.5 mM phosphoenolpyruvate, 200 μM NADH, 150 μg/mL pyruvate kinase, 50 μg/mL lactate dehydrogenase, and 200 μM EGF receptor peptide. […]

A further assay deals with T2, human Src kinase (Homo sapiens, UniProt P12931).
T2 construct: full length recombinant human Src kinase; purchased Upstate Biotechnology 14-117; host or cells: baculovirus-infected cells
T2 sequence (P12931 whole entry): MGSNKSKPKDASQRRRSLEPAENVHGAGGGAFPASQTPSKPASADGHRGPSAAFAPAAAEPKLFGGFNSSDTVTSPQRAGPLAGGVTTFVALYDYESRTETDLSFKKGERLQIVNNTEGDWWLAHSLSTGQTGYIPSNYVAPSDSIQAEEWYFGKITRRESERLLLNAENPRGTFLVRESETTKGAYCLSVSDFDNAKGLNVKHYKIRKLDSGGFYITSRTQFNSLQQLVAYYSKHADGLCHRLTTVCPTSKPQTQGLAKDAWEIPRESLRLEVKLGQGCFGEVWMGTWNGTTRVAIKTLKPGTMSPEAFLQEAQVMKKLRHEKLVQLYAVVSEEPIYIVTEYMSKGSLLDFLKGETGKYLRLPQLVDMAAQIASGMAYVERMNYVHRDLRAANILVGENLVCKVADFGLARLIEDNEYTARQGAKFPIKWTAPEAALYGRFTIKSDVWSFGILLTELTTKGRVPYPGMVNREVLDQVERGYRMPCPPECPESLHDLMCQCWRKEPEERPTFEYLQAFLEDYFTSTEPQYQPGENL
Kind of assay: Src inhibition assay (A: radioactivity-based or B: spectrophotometric coupled-enzyme assay). The note with it: assay A or B not specified; inhibitor concentration not given. The protocol: The compounds were evaluated as inhibitors of human Src kinase using either a radioactivity-based assay or spectrophotometric assay.
The compounds were assayed as inhibitors of full length recombinant human Src kinase (from Upstate Biotechnology, cat. no. 14-117) expressed and purified from baculo viral cells. Src kinase activity was monitored by following the incorporation of ^33p from ATP into the tyrosine of a random poly Glu-Tyr polymer substrate of composition, Glu:Tyr=4:1 (Sigma, cat. no. P-0275). The following were the final concentrations of the assay components: 0.05 M HEPES, pH 7.6, 10 mM MgCl2, 2 mM DTT, 0.25 mg/ml BSA, 10 μM ATP (1-2 uCi ^33P-ATP per reaction), 5 mg/ml poly Glu-Tyr, and 1-2 units of recombinant human Src kinase. In a typical assay, all the reaction components with the exception of ATP were pre-mixed and aliquoted into assay plate wells.
Inhibitors dissolved in DMSO were added to the wells to give a final DMSO concentration of 2.5%. The assay plate was incubated at 30° C. for 10 min before initiating the reaction with ^33P-ATP. After 20 min of reaction, the reactions were quenched with 150 μl of 10% trichloroacetic acid (TCA) containing 20 mM Na3PO4. The quenched samples were then transferred to a 96-well filter plate (Whatman, UNI-Filter GF/F Glass Fiber Filter, cat no. 7700-3310) installed on a filter plate vacuum manifold. Filter plates were washed four times with 10% TCA containing 20 mM Na3PO4 and then 4 times with methanol. 200 μl of scintillation fluid was then added to each well. The plates were sealed and the amount of radioactivity associated with the filters was quantified on a TopCount scintillation counter. The radioactivity incorporated was plotted as a function of the inhibitor concentration. The data was fitted to a competitive inhibition kinetics model to get the Ki for the compound.
The ADP produced from ATP by the human recombinant Src kinase-catalyzed phosphorylation of poly Glu-Tyr substrate was quanitified using a coupled enzyme assay (Fox et al (1998) Protein Sci 7, 2249). In this assay one molecule of NADH is oxidised to NAD for every molecule of ADP produced in the kinase reaction. The disappearance of NADH can be conveniently followed at 340 nm.
The following were the final concentrations of the assay components: 0.025 M HEPES, pH 7.6, 10 mM MgCl2, 2 mM DTT, 0.25 mg/ml poly Glu-Tyr, and 25 nM of recombinant human Src kinase. Final concentrations of the components of the coupled enzyme system were 2.5 mM phosphoenolpyruvate, 200 μM NADH, 30 μg/ml pyruvate kinase and 10 μg/ml lactate dehydrogenase.
In a typical assay, all the reaction components with the exception of ATP were pre-mixed and aliquoted into assay plate wells. Inhibitors dissolved in DMSO were added to the wells to give a final DMSO concentration of 2.5%. The assay plate was incubated at 30 C. for 10 min before initiating the reaction with 100 μM ATP. The absorbance change at 340 nm with time, the rate of the reaction, was monitored on a molecular devices plate reader. The data of rate as a function of the inhibitor concentration was fitted to compettive inhibition kinetics model to get the Ki for the compound.

T1 sequence (P53779 40-402): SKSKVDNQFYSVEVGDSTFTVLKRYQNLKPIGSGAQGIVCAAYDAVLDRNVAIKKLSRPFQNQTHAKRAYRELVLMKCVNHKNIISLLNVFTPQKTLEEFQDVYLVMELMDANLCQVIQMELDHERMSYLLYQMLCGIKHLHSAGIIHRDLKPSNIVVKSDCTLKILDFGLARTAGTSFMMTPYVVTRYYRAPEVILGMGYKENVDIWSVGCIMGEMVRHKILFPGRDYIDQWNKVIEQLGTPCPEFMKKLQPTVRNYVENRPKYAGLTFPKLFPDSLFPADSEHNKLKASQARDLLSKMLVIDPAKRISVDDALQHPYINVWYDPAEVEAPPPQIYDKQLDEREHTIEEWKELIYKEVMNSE

With `Cc1cnc(Nc2ccccc2)nc1-c1sc(SCc2ccc(O)cc2)c(C#N)c1-c1cccc(Cl)c1` [Compound V-1, 4-(3-chloro-phenyl)-2-(4-hydroxy-benzylsulfanyl)-5-(5-methyl-2-phenylamino-pyrimidin-4-yl)-thiophene-3-carbonitrile], the Ki at human Lck kinase was less than 100 nM; on activated JNK3 (activated JNK3 10 nM, 10 μM ATP, 30° C., read-out: JNK3 Activity (Ki class A-C)) it was 100 to 1000 nM.
As for `CSc1sc(-c2nc(C)cs2)c(C)c1-c1ccnc(Nc2ccccc2)n1` [IIb-1, {4-[4-methyl-2-methylsulfanyl-5-(4-methyl-thiazol-2-yl)-thiophen-3-yl]-pyrimidin-2-yl}-phenylamine], the “JNK3 Activity (percent inhibition class D-F)” value on activated JNK3 (inhibitor concentration not given) is on record as “D (Compounds having an activity designated as “D” provided a percent inhibition less than or equal to 24%)”. On human Src kinase, the “Src Activity (percent inhibition class D-F)” value is given as “D (Compounds having an activity designated as “D” provided a percent inhibition less than or equal to 24%)”.
